Experimental data reported in patent publication US4725683A, “Fluorophenoxyphenoxypropionates and derivatives thereof” (The Dow Chemical Company, priority 1985, dated 1988).

Tests used:
Assay type in all cases: in vivo
Barnyard Grass [1] = test: Postemergent activity
Experimental: (§1) Representative compositions of the present invention were evaluated for the postemergence control of species of plants listed in Table A. In these evaluations, pots of the plant species listed in Table A, grown to a height of about 10 cms, were used. Aqueous spray compositions, containing various amounts of 2-[4-(2-fluoro-4-trifluoromethylphenoxy)-phenoxy]propionic acid methy ester, i.e., 125 ppm, 62.5 ppm, 31.25 ppm, 15.6 ppm, 7.8 ppm and 3.9 ppm, respectively, were applied to separate pots. The spray compositions were made by mixing the active ingredient in acetone to 1/2 the final volume, i.e., twice the final concentration. An equal amount of water was added to the active ingredient/acetone mixture wherein the water contained 0.1 percent by weight of TWEEN® 200 surfactant. The application to the plants was made to the point of run-off and was carried out with conventional spraying equipment. Other pots were sprayed with similar compositions containing no toxicant to serve as controls. Thereafter, the pots were maintained under conditions conducive for plant growth. Two weeks after treatment, the pots were examined for plant growth and evaluated on a scale of 0 to 100 where 0 represents no effect and 100 represents complete kill. The results of the examination of the treated pots are set forth below in Table A.
(§2) Substantially the same procedures as those described in Example A were repeated except that the active ingredients were 2-[4-(4-chloro-2-fluorophenoxy)phenoxy]propionic acid; methyl ester and its R-enantiomer and 2-(4-(4-bromo-2-fluorophenoxy)phenoxy propionic acid; methyl ester and its R enantiomer. The results are listed below in Table B.
(§3) In further operations employing the above general procedures and the indicated test compounds the following results were obtained: […]

Crabgrass = test: Postemergent activity
Experimental: as §1, §2, §3

Wheat [2] = test: Postemergent activity; settings: Triticum aestivum, post-emergence, 336 h, read-out: % Control
Experimental: as §1, §2, §3

Wild Oats [3] = test: Postemergent activity; settings: Avena fatua, post-emergence, 336 h
Experimental: as §1, §2, §3

Foxtail [4] = test: Postemergent control of plant species
Experimental: as §1, §3

Foxtail [5] = test: Postemergent control of plant species; settings: 250 ppm
Yellow Foxtail [6] = test: Postemergent activity
Experimental: Representative compositions of the present invention were evaluated for the postemergence control of species of plants listed in Table A. In these evaluations, pots of the plant species listed in Table A, grown to a height of about 10 cms, were used. […] The spray compositions were made by mixing the active ingredient in acetone to 1/2 the final volume, i.e., twice the final concentration. An equal amount of water was added to the active ingredient/acetone mixture wherein the water contained 0.1 percent by weight of TWEEN® 200 surfactant. The application to the plants was made to the point of run-off and was carried out with conventional spraying equipment. […] Thereafter, the pots were maintained under conditions conducive for plant growth.

Johnson Grass [7] = test: Postemergent activity
Experimental: as §1

Barnyard Grass [8] = test: Preemergent activity; settings: Echinochloa crus-galli, pre-emergence, read-out: Preemergence Control
Outline: (§4)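 Test compound was applied in acetone mixed with an equal volume of water containing 0.1% Tween-20, sprayed preemergence onto seed beds of sandy loam soil sown with the test species. Beds were kept under identical temperature and light. A solvent-only spray served as control.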

Johnson Grass [9] = test: Preemergent activity; settings: Sorghum halepense, pre-emergence, read-out: Preemergence Control
Outline: as §4

Wheat [10] = test: Preemergent activity; settings: Triticum aestivum, pre-emergence, read-out: Preemergence Control
Outline: as §4

Wild Oats [11] = test: Preemergent activity; settings: Avena fatua, pre-emergence, read-out: Preemergence Control
Outline: as §4

Yellow Foxtail [12] = test: Preemergent activity; settings: Setaria, pre-emergence, read-out: Preemergence Control
Outline: as §4

C=CC(=O)C(C)Oc1ccc(Oc2ccc(Br)cc2F)cc1 (stereo not shown)
% Control (Barnyard Grass [1]; 7.8 ppm): 0%
% Control (Barnyard Grass [1]; 15.6 ppm): 0%
% Control (Barnyard Grass [1]; 31.2 ppm): 0%
% Control (Barnyard Grass [1]; 62.5 ppm): 0%
% Control (Barnyard Grass [1]; 125 ppm): 0%
% Control (Barnyard Grass [1]; 250 ppm): 30%
% Control (Crabgrass; 7.8 ppm): 0%
% Control (Crabgrass; 15.6 ppm): 0%
% Control (Crabgrass; 31.2 ppm): 0%
% Control (Crabgrass; 62.5 ppm): 100%
% Control (Crabgrass; 125 ppm): 98%
% Control (Crabgrass; 250 ppm): 98%
plant injury at 7.8 ppm (Wheat [2]): 0%
plant injury at 15.6 ppm (Wheat [2]): 0%
plant injury at 31.2 ppm (Wheat [2]): 0%
plant injury at 62.5 ppm (Wheat [2]): 0%
plant injury at 125 ppm (Wheat [2]): 0%
plant injury at 250 ppm (Wheat [2]): 0%
pest or weed control at 7.8 ppm (Wild Oats [3]; read-out: % Control): 0%
pest or weed control at 15.6 ppm (Wild Oats [3]; read-out: % Control): 0%
pest or weed control at 31.2 ppm (Wild Oats [3]): 0%
pest or weed control at 62.5 ppm (Wild Oats [3]; read-out: % Control): 0%
pest or weed control at 125 ppm (Wild Oats [3]; read-out: % Control): 0%
pest or weed control at 250 ppm (Wild Oats [3]; read-out: % Control): 0%
Percent Control (Foxtail [4]; 7.8 ppm): 0%
Percent Control (Foxtail [4]; 15.6 ppm): 0%
Percent Control (Foxtail [4]; 31.2 ppm): 0%
Percent Control (Foxtail [4]; 62.5 ppm): 0%
Percent Control (Foxtail [4]; 125 ppm): 0%
Percent Control (Foxtail [5]): 100%

CC(=O)C(C(C)=O)C(=O)C(C)Oc1ccc(Oc2ccc(Br)cc2F)cc1 (stereo not shown)
% Control (Barnyard Grass [1]; 7.8 ppm): 0%
% Control (Barnyard Grass [1]; 15.6 ppm): 0%
% Control (Barnyard Grass [1]; 31.2 ppm): 0%
% Control (Barnyard Grass [1]; 62.5 ppm): 100%
% Control (Barnyard Grass [1]; 125 ppm): 100%
% Control (Barnyard Grass [1]; 250 ppm): 100%
% Control (Crabgrass; 7.8 ppm): 0%
% Control (Crabgrass; 15.6 ppm): 70%
% Control (Crabgrass; 31.2 ppm): 100%
% Control (Crabgrass; 62.5 ppm): 100%
% Control (Crabgrass; 125 ppm): 100%
% Control (Crabgrass; 250 ppm): 100%
plant injury at 7.8 ppm (Wheat [2]): 0%
plant injury at 15.6 ppm (Wheat [2]): 0%
plant injury at 31.2 ppm (Wheat [2]): 0%
pest or weed control at 7.8 ppm (Wild Oats [3]; read-out: % Control): 0%
pest or weed control at 15.6 ppm (Wild Oats [3]; read-out: % Control): 0%
pest or weed control at 31.2 ppm (Wild Oats [3]): 0%
pest or weed control at 62.5 ppm (Wild Oats [3]; read-out: % Control): 0%
pest or weed control at 125 ppm (Wild Oats [3]; read-out: % Control): 0%
pest or weed control at 250 ppm (Wild Oats [3]; read-out: % Control): 50%
Percent Control (Foxtail [4]; 7.8 ppm): 0%
Percent Control (Foxtail [4]; 15.6 ppm): 0%
Percent Control (Foxtail [4]; 31.2 ppm): 100%
Percent Control (Foxtail [4]; 62.5 ppm): 100%
Percent Control (Foxtail [4]; 125 ppm): 100%
Percent Control (Foxtail [5]): 100%

COC(=O)C=C(OC)C(C)Oc1ccc(Oc2ccc(Br)cc2F)cc1 (stereo not shown)
% Control (Barnyard Grass [1]; 7.8 ppm): 0%
% Control (Barnyard Grass [1]; 15.6 ppm): 0%
% Control (Barnyard Grass [1]; 31.2 ppm): 0%
% Control (Barnyard Grass [1]; 62.5 ppm): 0%
% Control (Barnyard Grass [1]; 125 ppm): 0%
% Control (Barnyard Grass [1]; 250 ppm): 0%
% Control (Crabgrass; 7.8 ppm): 0%
% Control (Crabgrass; 15.6 ppm): 0%
% Control (Crabgrass; 31.2 ppm): 20%
% Control (Crabgrass; 62.5 ppm): 95%
% Control (Crabgrass; 125 ppm): 98%
% Control (Crabgrass; 250 ppm): 100%
plant injury at 7.8 ppm (Wheat [2]): 0%
plant injury at 15.6 ppm (Wheat [2]): 0%
plant injury at 31.2 ppm (Wheat [2]): 0%
plant injury at 62.5 ppm (Wheat [2]): 0%
plant injury at 125 ppm (Wheat [2]): 0%
plant injury at 250 ppm (Wheat [2]): 0%
pest or weed control at 7.8 ppm (Wild Oats [3]; read-out: % Control): 0%
pest or weed control at 15.6 ppm (Wild Oats [3]; read-out: % Control): 0%
pest or weed control at 31.2 ppm (Wild Oats [3]): 0%
pest or weed control at 62.5 ppm (Wild Oats [3]; read-out: % Control): 0%
pest or weed control at 125 ppm (Wild Oats [3]; read-out: % Control): 0%
pest or weed control at 250 ppm (Wild Oats [3]; read-out: % Control): 0%
Percent Control (Foxtail [4]; 7.8 ppm): 0%
Percent Control (Foxtail [4]; 15.6 ppm): 0%
Percent Control (Foxtail [4]; 31.2 ppm): 0%
Percent Control (Foxtail [4]; 62.5 ppm): 0%
Percent Control (Foxtail [4]; 125 ppm): 0%
Percent Control (Foxtail [5]): 100%

COC(=O)C(C)Oc1ccc(Oc2ccc(I)cc2F)cc1 (stereo not shown) [2-(4-(2-fluoro-4-iodophenoxy)phenoxy)propionic acid methyl ester]
% Control (Barnyard Grass [1]; 15.6 ppm): 10%
% Control (Barnyard Grass [1]; 31.25 ppm): 85%
% Control (Barnyard Grass [1]; 62.5 ppm): 100%
% Control (Barnyard Grass [1]; 125 ppm): 100%
% Control (Crabgrass; 15.6 ppm): 100%
% Control (Crabgrass; 31.25 ppm): 100%
% Control (Crabgrass; 62.5 ppm): 100%
% Control (Crabgrass; 125 ppm): 100%
plant injury at 15.6 ppm (Wheat [2]): 0%
plant injury at 31.25 ppm (Wheat [2]; 31.25 ppm): 0%
plant injury at 62.5 ppm (Wheat [2]): 0%
plant injury at 125 ppm (Wheat [2]): 0%
pest or weed control at 15.6 ppm (Wild Oats [3]; read-out: % Control): 0%
pest or weed control at 31.25 ppm (Wild Oats [3]; 31.25 ppm, read-out: % Control): 0%
pest or weed control at 62.5 ppm (Wild Oats [3]; read-out: % Control): 0%
pest or weed control at 125 ppm (Wild Oats [3]; read-out: % Control): 0%
% Control (Yellow Foxtail [6]; 15.6 ppm): 90%
% Control (Yellow Foxtail [6]; 31.25 ppm): 100%
% Control (Yellow Foxtail [6]; 62.5 ppm): 100%
% Control (Yellow Foxtail [6]; 125 ppm): 100%
% Control (Johnson Grass [7]; 15.6 ppm): 90%
% Control (Johnson Grass [7]; 31.25 ppm): 100%
% Control (Johnson Grass [7]; 62.5 ppm): 100%
% Control (Johnson Grass [7]; 125 ppm): 100%
pest or weed control at 140 g/ha (Barnyard Grass [8]; 0.14 kgs/hectare): 50%
pest or weed control at 280 g/ha (Barnyard Grass [8]; 0.28 kgs/hectare): 100%
pest or weed control at 560 g/ha (Barnyard Grass [8]; 0.56 kgs/hectare): 97%
pest or weed control at 1120 g/ha (Barnyard Grass [8]; 1.12 kgs/hectare): 100%
pest or weed control at 70 g/ha (Johnson Grass [9]; 0.07 kgs/hectare): 0%
pest or weed control at 140 g/ha (Johnson Grass [9]; 0.14 kgs/hectare): 0%
pest or weed control at 280 g/ha (Johnson Grass [9]; 0.28 kgs/hectare): 60%
pest or weed control at 560 g/ha (Johnson Grass [9]; 0.56 kgs/hectare): 99%
pest or weed control at 1120 g/ha (Johnson Grass [9]; 1.12 kgs/hectare): 100%
plant injury at 70 g/ha (Wheat [10]; 0.07 kgs/hectare): 0%
plant injury at 140 g/ha (Wheat [10]; 0.14 kgs/hectare): 0%
plant injury at 280 g/ha (Wheat [10]; 0.28 kgs/hectare): 0%
plant injury at 560 g/ha (Wheat [10]; 0.56 kgs/hectare): 20%
plant injury at 1120 g/ha (Wheat [10]; 1.12 kgs/hectare): 20%
pest or weed control at 70 g/ha (Wild Oats [11]; 0.07 kgs/hectare): 0%
pest or weed control at 140 g/ha (Wild Oats [11]; 0.14 kgs/hectare): 0%
pest or weed control at 280 g/ha (Wild Oats [11]; 0.28 kgs/hectare): 0%
pest or weed control at 560 g/ha (Wild Oats [11]; 0.56 kgs/hectare): 95%
pest or weed control at 1120 g/ha (Wild Oats [11]; 1.12 kgs/hectare): 99%
pest or weed control at 70 g/ha (Yellow Foxtail [12]; 0.07 kgs/hectare): 0%
pest or weed control at 140 g/ha (Yellow Foxtail [12]; 0.14 kgs/hectare): 0%
pest or weed control at 280 g/ha (Yellow Foxtail [12]; 0.28 kgs/hectare): 20%
pest or weed control at 560 g/ha (Yellow Foxtail [12]; 0.56 kgs/hectare): 100%
pest or weed control at 1120 g/ha (Yellow Foxtail [12]; 1.12 kgs/hectare): 100%

CC(=O)CC(O)C(C)Oc1ccc(Oc2ccc(Br)cc2F)cc1 (stereo not shown)
% Control (Barnyard Grass [1]; 7.8 ppm): 0%
% Control (Barnyard Grass [1]; 15.6 ppm): 0%
% Control (Barnyard Grass [1]; 31.2 ppm): 0%
% Control (Barnyard Grass [1]; 62.5 ppm): 0%
% Control (Barnyard Grass [1]; 125 ppm): 0%
% Control (Barnyard Grass [1]; 250 ppm): 0%
% Control (Crabgrass; 7.8 ppm): 0%
% Control (Crabgrass; 15.6 ppm): 0%
% Control (Crabgrass; 31.2 ppm): 0%
% Control (Crabgrass; 62.5 ppm): 95%
% Control (Crabgrass; 125 ppm): 95%
plant injury at 7.8 ppm (Wheat [2]): 0%
plant injury at 15.6 ppm (Wheat [2]): 0%
plant injury at 31.2 ppm (Wheat [2]): 0%
plant injury at 62.5 ppm (Wheat [2]): 0%
plant injury at 125 ppm (Wheat [2]): 0%
pest or weed control at 7.8 ppm (Wild Oats [3]; read-out: % Control): 0%
pest or weed control at 15.6 ppm (Wild Oats [3]; read-out: % Control): 0%
pest or weed control at 31.2 ppm (Wild Oats [3]): 0%
pest or weed control at 62.5 ppm (Wild Oats [3]; read-out: % Control): 0%
pest or weed control at 125 ppm (Wild Oats [3]; read-out: % Control): 0%
pest or weed control at 250 ppm (Wild Oats [3]; read-out: % Control): 0%
Percent Control (Foxtail [4]; 7.8 ppm): 0%
Percent Control (Foxtail [4]; 15.6 ppm): 0%
Percent Control (Foxtail [4]; 31.2 ppm): 0%
Percent Control (Foxtail [4]; 62.5 ppm): 0%
Percent Control (Foxtail [4]; 125 ppm): 20%
Percent Control (Foxtail [5]): 25%
